Reference: patent publication US9708336B2, “Metallo-beta-lactamase inhibitors” (priority 2014, dated 2017)
Like-named read-outs stand apart in the source and are kept apart here.

Experiments:
[1] = target: NDM-1 (Klebsiella pneumoniae, UniProt C7C422); assay: biochemical; type: biochemical; conditions: read-out: NDM-1 IC50
[2] = target: VIM-1 (Pseudomonas aeruginosa (strain ATCC 15692 / DSM 22644 / CIP 104116 / JCM 14847 / LMG 12228 / 1C / PRS 101 / PAO1), UniProt A0A0F7KYQ8); assay: Enzyme activity: determination of IC50, fluorescence assay with CCF2-FA substrate (VIM-1); type: biochemical; conditions: read-out: VIM-1 IC50
[3] = target: IMP-1 (Serratia marcescens, UniProt P52699); assay: biochemical; type: biochemical; conditions: read-out: IMP-1 IC50
IMP-1, sequence (P52699 whole entry, looked up): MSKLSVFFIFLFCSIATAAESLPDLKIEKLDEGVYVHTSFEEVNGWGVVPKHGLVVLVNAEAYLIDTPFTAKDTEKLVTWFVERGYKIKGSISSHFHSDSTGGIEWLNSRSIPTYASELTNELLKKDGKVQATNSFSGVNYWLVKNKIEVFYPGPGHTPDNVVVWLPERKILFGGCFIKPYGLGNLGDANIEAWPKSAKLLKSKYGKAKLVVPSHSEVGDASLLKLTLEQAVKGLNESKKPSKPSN

[4] = system: Escherichia coli expressing NDM-1 (CLB30005); assay: Antibiotic potentiation activity: synergistic concentration (MITC95) with imipenem, OD600 growth; type: cell-based; conditions: for Escherichia coli expressing NDM-1 (CLB 30005) MITC95: concentration giving 95% inhibition of bacterial growth
Method in brief: (§1)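 Spectrophotometric growth readings were taken following 22–24 h at 35 °C. Before that, organisms in 1.1× CAMHB were mixed with imipenem, used at 4 μg/ml in assay, and test compound.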

[5] = system: Klebsiella pneumoniae expressing VIM-1 (IHMA599644); assay: as above; type: cell-based; conditions: for Klebsiella pneumoniae expressing VIM-1 (IHMA 599644) MITC95: concentration giving 95% inhibition of bacterial growth
Method in brief: as §1

[6] = system: Serratia marcescens expressing IMP-1 (CL5741); assay: as above; type: cell-based; conditions: for Serratia marcescens expressing IMP-1 (CL5741) MITC95: concentration giving 95% inhibition of bacterial growth
Method in brief: as §1

[7] = fluorescence assay with CCF2-FA substrate

NDM-1, sequence (C7C422 whole entry, looked up, species assumed): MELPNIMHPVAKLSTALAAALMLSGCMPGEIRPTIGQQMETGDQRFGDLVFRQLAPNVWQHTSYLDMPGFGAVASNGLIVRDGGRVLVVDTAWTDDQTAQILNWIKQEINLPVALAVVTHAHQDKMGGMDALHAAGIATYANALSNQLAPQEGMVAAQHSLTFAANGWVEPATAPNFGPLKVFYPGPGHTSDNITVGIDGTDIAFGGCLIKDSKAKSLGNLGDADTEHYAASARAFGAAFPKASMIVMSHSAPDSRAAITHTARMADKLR

SMILES | IC50 [1, 7] [nM] | IC50 [2, 7] [nM] | IC50 [3, 7] [nM] | Escherichia coli expressing NDM-1 (CLB 30005) MITC95 [4] [µM] | Klebsiella pneumoniae expressing VIM-1 (IHMA 599644) MITC95 [5] [µM] | Serratia marcescens expressing IMP-1 (CL5741) MITC95 [6] [µM] | IC50 ([1]; NDM-1 enzyme, CCF2-FA fluorescence assay) [nM] | IC50 ([2]; VIM-1 enzyme, CCF2-FA fluorescence assay) [nM] | IC50 ([3]; IMP-1 enzyme, CCF2-FA fluorescence assay) [nM] | Escherichia coli MITC95 ([4]; Escherichia coli expressing NDM-1 (CLB30005), 95% growth inhibition) [µM] | Klebsiella pneumoniae MITC95 ([5]; Klebsiella pneumoniae expressing VIM-1 (IHMA599644), 95% growth inhibition) [µM] | Serratia marcescens MITC95 ([6]; Serratia marcescens expressing IMP-1 (CL5741), 95% growth inhibition) [µM]
NS(=O)(=O)c1cccc(-c2ccc3ncccc3c2)c1-c1nn[nH]n1 [Example 66, 3-quinolin-6-yl-2-(2H-tetrazol-5-yl)benzenesulfonamide] | 1.1 | 29.1 | 140 | 0.7813 | 75 | 18.75 | – | – | – | – | – | –
COc1ncc(-c2cccc(S(N)(=O)=O)c2-c2nn[nH]n2)cn1 [Example 91, 3-(2-methoxypyrimidin-5-yl)-2-(2H-tetrazol-5-yl)benzenesulfonamide] | 27.5 | 180 | 830 | 0.7813 | 75 | 50 | – | – | – | – | – | –
NS(=O)(=O)c1cccc(-c2ccc(C(=O)N3CCOCC3)cc2)c1-c1nn[nH]n1 [Example 10, 4′-(morpholin-4-ylcarbonyl)-2-(2H-tetrazol-5-yl)biphenyl-3-sulfonamide] | 3.7 | 986 | 62.6 | 3.125 | >200 | 6.25 | – | – | – | – | – | –
CN(C)CCNC(=O)c1ccc(-c2cccc(S(N)(=O)=O)c2-c2nn[nH]n2)cc1 [Example 87, N-[2-(dimethylamino)ethyl]-3′-sulfamoyl-2′-(2H-tetrazol-5-yl)biphenyl-4-carboxamide] | 95.5 | 2090 | 908 | 3.906 | 200 | 18.75 | – | – | – | – | – | –
NS(=O)(=O)c1cccc(-c2ccnnc2)c1-c1nn[nH]n1 [Example 47, 3-pyridazin-4-yl-2-(2H-tetrazol-5-yl)benzenesulfonamide] | 345 | 5360 | 4160 | 0.7813 | >200 | 50 | – | – | – | – | – | –
Cc1ccc(-c2cc(-c3ccc(O)nc3)cc(S(N)(=O)=O)c2-c2nn[nH]n2)cc1 [Example 292, 5-(6-hydroxypyridin-3-yl)-4′-methyl-2-(2H-tetrazol-5-yl)-[1,1′-biphenyl]-3-sulfonamide] | – | – | – | – | – | – | 3.65 | 193 | 416 | 3.516 | >200 | 18.75
NS(=O)(=O)c1cccc(-c2cnc(C3(O)CCC3)s2)c1-c1nn[nH]n1 [Example 21, 3-[2-(1-hydroxycyclobutyl)-1,3-thiazol-5-yl]-2-(2H-tetrazol-5-yl)benzenesulfonamide] | 63.8 | 564 | 2270 | 12.89 | >200 | 100 | – | – | – | – | – | –
NS(=O)(=O)c1cccc(C#Cc2cccnc2)c1-c1nn[nH]n1 [Example 147, 3-(pyridin-3-ylethynyl)-2-(2H-tetrazol-5-yl)benzenesulfonamide] | 16.4 | 1100 | 103 | 3.125 | >200 | 18.75 | – | – | – | – | – | –
NS(=O)(=O)c1cccc(-c2cscn2)c1-c1nn[nH]n1 [Example 45, 2-(2H-tetrazol-5-yl)-3-(1,3-thiazol-4-yl)benzenesulfonamide] | 85 | 496 | 1210 | 0.7813 | 50 | 25 | – | – | – | – | – | –
